Source: patent US9175906B2, “Drug particles from freezing onto a surface” (BOARD OF REGENTS, THE UNIVERSITY OF TEXAS SYSTEM, priority 2003, dated 2015)
Values joined by “and” are separate entries in the source; they are usually repeats but may differ in a detail not shown here. Identical values can stand only once.

Columns and labels:
[1] = USP Dissolution Apparatus Method 2 (in vitro dissolution); assay type: physicochemical; settings: 37° C.
Method: (§1) • Particle Size Analysis. […] Dissolution obtained using the following method is also referred to herein as “in vitro dissolution”. The dissolution media used varied with the drug substance, and is specified below. The dissolution media was heated to 37° C. and degassed. Dissolution was performed utilizing three vessels per experiment. 11 to 12 mg of drug particles prepared according to the present invention was added to each vessel for dissolution analysis. Dissolution samples were filtered automatically into test tubes containing 0.1 mL of acetonitrile, mixed with a vortex mixer, filtered and analyzed by HPLC. Samples were taken at 2, 5, 10, 15, 20, 30, 60, and 120 minutes. At the 60 min. point the agitation speed was increased to 200 rpm to ensures complete dissolution by 120 minutes. The 120 min. reading is the infinity time reading and the infinity time is used to calculate the potency. […] Crystallinity was determined by X-ray diffraction methods using a Bruker D-8 automated diffractometer. • Atmospheric Freeze Drying (ATMFD). ATMFD was one method of solvent removal used in the following examples. Heat transfer fluid was circulated through the circulating jacket of the heat exchanger, that was used to cool the drying gas then to the jacket of the ATMFD unit. Chilled nitrogen gas is flowed through the bottom of the ATMFD unit to sublime the solvent(s) away from the drug (s) and fluidizing the solids. The ATMFD unit and the nitrogen gas temperature are slowly warmed to ambient temperature. After the ATMFD portion of the process was complete the solid was collected from either the cyclone or the ATMFD Unit. • Freeze Drying. Freeze drying was an alternative solvent removal method used in some of the following examples. The frozen solution that was prepared was transferred to ajar cooled with dry ice. The processed solid in the chilled container was placed on a Virtis freeze dryer and dried for app. 12-24 hr at approximately 100 mtorr vacuum.

[2] = Particle size analysis (Beckman Coulter Counter) after redispersion in water; assay type: physicochemical; settings: bulk drug powder as received, redispersed in water
Method: as §1

[3] = deionized water containing 10.0 wt. % sodium chloride

Row | Compound | PSA of bulk drug [2] | further results
1 | NC(=O)N1c2ccccc2C=Cc2ccccc21 [Carbamazepine] | 391.4 microns | Dissolution of bulk drug after 2 minutes ([1]; deionized water containing 5.0 wt. % sodium chloride): 4.83 wt %
2 | C#C[C@]1(O)CC[C@H]2[C@@H]3CCC4=Cc5oncc5C[C@]4(C)[C@H]3CC[C@@]21C [Danazol] | 24.86 microns | Dissolution of bulk drug after 2 minutes ([1]; deionized water, 0.75 wt. % SLS, 1.21 wt. % Tris, pH 9): 56.42 wt %
3 | CC(=O)OCC(=O)[C@@]1(O)CC[C@H]2[C@@H]3CCC4=CC(=O)CC[C@]4(C)[C@H]3[C@@H](O)C[C@@]21C [Hydrocortisone Acetate] | 17.07 microns | Dissolution of bulk drug after 2 minutes ([1]; deionized water containing 0.3 wt. % SDS): 21.16 wt %
4 | CC(=O)N1CCN(c2ccc(OCC3COC(Cn4ccnc4)(c4ccc(Cl)cc4Cl)O3)cc2)CC1 (stereo not shown) [Ketoconazole] | 13.5 microns and 13.50 microns | Dissolution of bulk drug after 2 minutes ([1]; deionized water containing 0.5 wt. % SLS): 26.1 wt % and 26.10 wt %
5 | CC(C(=O)O)c1cccc(C(=O)c2ccccc2)c1 (stereo not shown) [Ketoprofen] | 42.73 microns | –
6 | C[C@]12C=CC(=O)C=C1CC[C@@H]1[C@@H]2C(=O)C[C@@]2(C)[C@H]1CC[C@]2(O)C(=O)CO [Prednisone] | 3.263 microns | Dissolution of bulk drug after 2 minutes [1, 3]: 0.97 wt %
7 | CC1(C)O[C@@H]2C[C@H]3[C@@H]4CCC5=CC(=O)C=C[C@]5(C)[C@@]4(F)[C@@H](O)C[C@]3(C)[C@]2(C(=O)CO)O1 [Triamcinalone Acetonide] | 7.707 microns | Dissolution of bulk drug after 2 minutes [1, 3]: 5.38 wt %
